Consider 7 molecules from ChEMBL document CHEMBL1156830, “Synthesis of fluorescent nucleoside analogs as probes for 2'-deoxyribonucleoside kinases” (Bioorg Med Chem Lett, 2010).

The target of one experiment is T1, Deoxynucleoside kinase (Drosophila melanogaster) (UniProt Q9XZT6).
T1 sequence (whole entry): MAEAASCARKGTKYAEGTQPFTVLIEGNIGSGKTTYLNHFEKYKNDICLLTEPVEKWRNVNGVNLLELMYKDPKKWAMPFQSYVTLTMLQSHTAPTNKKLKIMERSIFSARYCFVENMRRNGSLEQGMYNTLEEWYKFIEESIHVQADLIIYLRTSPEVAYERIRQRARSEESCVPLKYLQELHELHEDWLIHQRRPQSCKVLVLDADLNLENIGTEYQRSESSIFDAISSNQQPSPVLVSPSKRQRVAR
Kind of experiment: Activity at Drosophila melanogaster dNK at 10 uM by spectrophotometry.
In the case of `Cc1cc2cn([C@H]3C[C@H](O)[C@@H](CO)O3)c(=O)nc2o1`, the Activity came out at 43%.

The target of the next experiment is T1, Deoxynucleoside kinase (Drosophila melanogaster). Kind of experiment: Activity at Drosophila melanogaster dNK at 100 uM by spectrophotometry.
With `Cc1cc2cn([C@H]3C[C@H](N=[N+]=[N-])[C@@H](CO)O3)c(=O)nc2o1`, the Activity was found to be 12%. The same measure, in the same setting: the value for `Cc1cc2cn([C@H]3C[C@H](F)[C@@H](CO)O3)c(=O)nc2o1` was 12%; that for `Cc1cc2cn([C@H]3CC[C@@H](CO)O3)c(=O)nc2[nH]1` was 2.6%. Still for that read-out and setting: the value for `Cc1cc2cn([C@H]3C[C@H](O)[C@@H](CO)O3)c(=O)nc2[nH]1` was 128%; that for `Cc1cc2cn([C@H]3CC[C@@H](CO)O3)c(=O)nc2o1` was 30%.

`Cc1cc2cn([C@H]3C=C[C@@H](CO)O3)c(=O)nc2o1`: the Activity was found to be 330%.
